In one assay the target is T1, 5-HT1A (Homo sapiens, UniProt P08908).
T1 construct: gene HTR1A; full-length receptor; HEK293 with TRUPATH sensors
The assay can be described thus: TRUPATH BRET2 G protein dissociation, HEK293. The class given is cell-based. As to conditions: HBSS, […] HEPES pH […] °C; agonist mode.

The next assay concerns the target T2, α2B (Homo sapiens, UniProt P18089).
T2 construct: gene ADRA2B; full-length receptor; HEK293 cell membranes
As to the kind of experiment: competitive radioligand binding, HEK293 membranes. The source says: competitive radioligand binding, HEK293 membranes on α2B

For the next assay, the target named is HRH3 (Homo sapiens, UniProt Q9Y5N1). As to the kind of experiment: cell-based. On the set-up: PRESTO-Tango beta-arrestin2 recruitment, luciferase luminescence, concentration-response. Particulars: HTLA, Assay=Tango, agonist mode, % of control agonist. The protocol:
(§1) Off-target agonism across the human GPCRome was profiled using PRESTO-Tango, following established protocols with minor adaptations [10]–[12]. […] After ~6 h recovery, cells were transfected with 20 ng plasmid DNA per well and incubated overnight. The next day, 10 µL of test compound (prepared in DMEM + 1% dFBS) was added, and plates were incubated overnight. Media and compounds were removed, and 20 µL per well of Bright-Glo luciferase reagent diluted in assay buffer (Hank’s Balanced Salt Solution (HBSS), 20 mM HEPES, pH 7.4) was added. After 20 min at room temperature (dark), luminescence was recorded. Each plate included the dopamine D2 receptor (DRD2) stimulated with 100 nM quinpirole as a positive control. For the GPCRome screen, each receptor was tested in quadruplicate at 0 and 10 µM compound (final). Responses were expressed as fold change relative to the basal (0 µM) condition. Follow-up concentration–response assays were performed under identical conditions except that serial dilutions of compounds (maximum ~30 µM, final) were added to generate full concentration–response curves.

The target in the next assay is T3, CHRM4 (Homo sapiens, UniProt P08173).
T3 sequence (P08173 1-479): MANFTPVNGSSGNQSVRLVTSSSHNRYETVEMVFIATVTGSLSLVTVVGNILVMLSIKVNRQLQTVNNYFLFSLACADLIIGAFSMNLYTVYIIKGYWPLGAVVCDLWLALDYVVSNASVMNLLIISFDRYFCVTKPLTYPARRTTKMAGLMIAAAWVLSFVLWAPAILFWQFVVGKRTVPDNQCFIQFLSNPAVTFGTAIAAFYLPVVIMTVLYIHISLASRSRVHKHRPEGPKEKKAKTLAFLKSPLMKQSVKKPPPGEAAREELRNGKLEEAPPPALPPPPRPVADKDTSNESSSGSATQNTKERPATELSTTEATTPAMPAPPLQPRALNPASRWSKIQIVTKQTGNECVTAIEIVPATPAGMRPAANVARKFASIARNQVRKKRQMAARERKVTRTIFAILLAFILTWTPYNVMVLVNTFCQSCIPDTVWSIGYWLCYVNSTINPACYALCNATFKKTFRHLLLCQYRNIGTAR
The assay can be described thus: cell-based. Details: PRESTO-Tango beta-arrestin2 recruitment, luciferase luminescence, concentration-response. As to conditions: HTLA, Assay=Tango, agonist mode, % of control agonist. The method, then: as §1

The next assay concerns the target T4, CHRM2 (Homo sapiens, UniProt P08172).
T4 sequence (P08172 1-466): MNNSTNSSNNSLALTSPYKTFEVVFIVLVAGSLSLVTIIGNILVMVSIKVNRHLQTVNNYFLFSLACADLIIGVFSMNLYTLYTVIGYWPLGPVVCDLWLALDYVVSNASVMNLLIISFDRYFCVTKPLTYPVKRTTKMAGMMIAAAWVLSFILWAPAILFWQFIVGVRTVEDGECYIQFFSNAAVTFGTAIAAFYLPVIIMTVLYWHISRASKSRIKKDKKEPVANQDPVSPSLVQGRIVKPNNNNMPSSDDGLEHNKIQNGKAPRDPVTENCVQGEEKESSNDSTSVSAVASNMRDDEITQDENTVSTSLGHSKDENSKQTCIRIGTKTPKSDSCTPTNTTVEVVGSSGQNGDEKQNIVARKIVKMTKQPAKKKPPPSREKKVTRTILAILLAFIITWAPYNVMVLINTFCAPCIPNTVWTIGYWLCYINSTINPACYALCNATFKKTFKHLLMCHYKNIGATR
The assay can be described thus: cell-based. Particulars: HTLA, Assay=Tango, agonist mode, % of control agonist. On the set-up: PRESTO-Tango beta-arrestin2 recruitment, luciferase luminescence, concentration-response. The method, then: as §1

Another assay concerns the target HTR1D (Homo sapiens, UniProt P28221). The assay can be described thus: cell-based. Details: PRESTO-Tango beta-arrestin2 recruitment, luciferase luminescence, concentration-response. As to conditions: HTLA, Assay=Tango, agonist mode, % of control agonist. The method, then: as §1
The target in the next assay is T5, CHRM1 (Homo sapiens, UniProt P11229).
T5 sequence (P11229 1-460): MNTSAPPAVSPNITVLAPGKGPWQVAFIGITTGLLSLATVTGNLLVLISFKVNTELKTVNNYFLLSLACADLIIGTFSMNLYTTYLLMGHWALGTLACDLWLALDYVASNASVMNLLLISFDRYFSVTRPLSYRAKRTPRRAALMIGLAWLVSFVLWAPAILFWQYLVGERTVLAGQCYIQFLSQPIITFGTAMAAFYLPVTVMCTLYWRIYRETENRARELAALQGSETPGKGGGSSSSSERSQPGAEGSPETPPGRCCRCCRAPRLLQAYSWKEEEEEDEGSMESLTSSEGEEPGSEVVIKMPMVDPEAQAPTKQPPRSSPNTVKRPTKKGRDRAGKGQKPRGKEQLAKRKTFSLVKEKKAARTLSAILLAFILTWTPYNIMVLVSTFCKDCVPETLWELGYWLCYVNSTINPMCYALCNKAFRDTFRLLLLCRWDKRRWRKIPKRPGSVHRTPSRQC
As to the kind of experiment: cell-based. Details: PRESTO-Tango beta-arrestin2 recruitment, luciferase luminescence, concentration-response. As to conditions: HTLA, Assay=Tango, agonist mode, % of control agonist. The protocol:
as §1

A further assay has as its target CHRM3 (Homo sapiens, UniProt P20309). The assay can be described thus: cell-based. On the set-up: PRESTO-Tango beta-arrestin2 recruitment, luciferase luminescence, concentration-response. As to conditions: HTLA, Assay=Tango, agonist mode, % of control agonist. The protocol: as §1
A further assay deals with T6, M3 (Homo sapiens, UniProt P20309).
T6 construct: gene CHRM3; full-length receptor; HEK293 with TRUPATH sensors (function)
As to the kind of experiment: competitive radioligand binding, HEK293 membranes. An excerpt: competitive radioligand binding, HEK293 membranes on M3

The mark [1] stands for this setting: read-out: N-Desmethyl Xanomeline.

Read-outs that look alike come from different tables or passages of the source.

T2 sequence (P18089 whole entry): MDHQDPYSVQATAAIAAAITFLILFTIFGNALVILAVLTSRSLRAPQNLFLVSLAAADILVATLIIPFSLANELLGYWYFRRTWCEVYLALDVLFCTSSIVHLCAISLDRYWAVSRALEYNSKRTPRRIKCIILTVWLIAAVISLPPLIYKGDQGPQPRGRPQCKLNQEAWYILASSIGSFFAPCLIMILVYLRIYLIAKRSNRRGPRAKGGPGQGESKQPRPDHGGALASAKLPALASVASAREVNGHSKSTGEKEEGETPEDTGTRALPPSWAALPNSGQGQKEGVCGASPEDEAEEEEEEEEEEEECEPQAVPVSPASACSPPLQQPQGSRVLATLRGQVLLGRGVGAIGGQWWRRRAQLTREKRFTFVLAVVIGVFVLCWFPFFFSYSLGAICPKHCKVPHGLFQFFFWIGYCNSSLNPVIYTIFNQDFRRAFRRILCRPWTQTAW
HTR1D, sequence (P28221 whole entry): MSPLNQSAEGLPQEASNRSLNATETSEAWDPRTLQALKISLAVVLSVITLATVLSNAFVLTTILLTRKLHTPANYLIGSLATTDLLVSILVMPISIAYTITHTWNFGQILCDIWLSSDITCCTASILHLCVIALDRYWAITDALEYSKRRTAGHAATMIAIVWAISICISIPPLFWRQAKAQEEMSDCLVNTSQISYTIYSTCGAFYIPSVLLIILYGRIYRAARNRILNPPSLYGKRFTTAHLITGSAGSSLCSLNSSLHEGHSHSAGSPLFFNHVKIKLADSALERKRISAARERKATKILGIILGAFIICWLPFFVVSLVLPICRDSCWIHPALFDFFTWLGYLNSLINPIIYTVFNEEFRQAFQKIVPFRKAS
T6 sequence (P20309 whole entry): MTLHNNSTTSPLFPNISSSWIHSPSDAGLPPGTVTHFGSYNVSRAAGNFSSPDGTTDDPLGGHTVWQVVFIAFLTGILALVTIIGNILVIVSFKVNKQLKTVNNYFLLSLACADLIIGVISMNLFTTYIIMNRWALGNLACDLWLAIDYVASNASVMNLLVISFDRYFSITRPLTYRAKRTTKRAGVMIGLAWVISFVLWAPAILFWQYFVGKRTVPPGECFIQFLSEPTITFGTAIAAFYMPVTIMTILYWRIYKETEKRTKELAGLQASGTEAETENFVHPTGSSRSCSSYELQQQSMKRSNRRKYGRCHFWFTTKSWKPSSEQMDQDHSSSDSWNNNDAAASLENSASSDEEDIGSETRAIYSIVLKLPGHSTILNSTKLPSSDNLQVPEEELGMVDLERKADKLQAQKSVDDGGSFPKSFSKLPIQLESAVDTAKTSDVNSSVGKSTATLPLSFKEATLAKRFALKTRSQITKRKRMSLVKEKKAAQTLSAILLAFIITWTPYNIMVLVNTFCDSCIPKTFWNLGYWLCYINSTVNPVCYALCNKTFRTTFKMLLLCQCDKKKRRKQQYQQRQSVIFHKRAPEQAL
CHRM3, sequence (P20309 whole entry): as above
HRH3, sequence (Q9Y5N1 whole entry): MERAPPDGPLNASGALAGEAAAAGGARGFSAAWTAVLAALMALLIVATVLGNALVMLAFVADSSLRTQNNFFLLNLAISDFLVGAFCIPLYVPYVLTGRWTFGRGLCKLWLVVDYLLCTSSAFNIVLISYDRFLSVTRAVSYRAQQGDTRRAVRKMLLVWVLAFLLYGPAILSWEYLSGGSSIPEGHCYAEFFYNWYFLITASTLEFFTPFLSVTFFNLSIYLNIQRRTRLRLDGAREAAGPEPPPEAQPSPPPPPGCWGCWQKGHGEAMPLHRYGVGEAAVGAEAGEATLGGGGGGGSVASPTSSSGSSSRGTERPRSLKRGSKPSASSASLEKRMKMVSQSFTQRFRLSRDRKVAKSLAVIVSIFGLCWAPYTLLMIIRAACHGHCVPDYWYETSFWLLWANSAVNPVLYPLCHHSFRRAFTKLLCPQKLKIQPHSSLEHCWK
T1 sequence (P08908 whole entry): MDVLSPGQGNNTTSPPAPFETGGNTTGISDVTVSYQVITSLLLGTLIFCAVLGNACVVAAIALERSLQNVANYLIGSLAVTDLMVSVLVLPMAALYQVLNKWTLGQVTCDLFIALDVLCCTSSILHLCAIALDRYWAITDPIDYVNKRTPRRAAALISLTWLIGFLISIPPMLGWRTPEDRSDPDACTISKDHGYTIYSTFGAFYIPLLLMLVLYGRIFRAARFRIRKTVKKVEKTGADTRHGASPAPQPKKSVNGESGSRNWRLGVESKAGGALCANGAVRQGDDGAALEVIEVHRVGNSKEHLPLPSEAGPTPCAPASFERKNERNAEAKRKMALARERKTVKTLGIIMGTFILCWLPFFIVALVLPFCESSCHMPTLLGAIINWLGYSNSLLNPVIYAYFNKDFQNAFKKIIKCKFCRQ

For `CCCCCCOc1nsnc1C1=CCCNC1` [N-desmethylxanomeline], the EC50 entry on 5-HT1A is “full or partial agonists at 5-HT1D and 5-HT1A in a transducer-dependent fashion”. Further, the Ki was 339 nM at α2B and 112 nM on M3. The Emax was 16.8% on HRH3 (setting [1]); 67.5% at CHRM4 (setting [1]); 42.6% on CHRM2 (setting [1]); 51.2% on HTR1D (setting [1]); 28.4% at CHRM1 (setting [1]); 32.1% on CHRM3 (setting [1]).

As for `CCCCCCOc1nsnc1C1=CCCN(C)C1` [Xanomeline], the EC50 result on 5-HT1A is “full or partial agonists at 5-HT1D and 5-HT1A in a transducer-dependent fashion”. Besides, the Ki at α2B is 316 nM; on M3, 74.1 nM. In addition, the Emax at HRH3 (read-out: Xanomeline) stood at 2.89%; at CHRM4 (read-out: Xanomeline), 72.5%; at CHRM2 (read-out: Xanomeline) it was 45.5%; on HTR1D (read-out: Xanomeline) it was 73.3%; at CHRM1 (read-out: Xanomeline), 67%; on CHRM3 (read-out: Xanomeline) it was 42.8%.

(Values after paper doi:10.1101/2025.11.20.689572v1 (biorxiv, 2025).)
